This is an account of results in article PMC7028431 (Science (New York, N.Y.), 2019).

The experiment addresses GluER (Gluconobacter oxydans, UniProt Q5FTL6, T36A). Nature of the experiment: UV-visible spectrum of reduced enzyme. In kind it is binding. The settings on record: dithionite reduction.

With `Cc1cc2c(cc1C)N(C[C@H](O)[C@H](O)[C@H](O)COP(=O)(O)O)c1[nH]c(=O)[nH]c(=O)c1N2` [FMNhq], the “UV-visible spectrum of reduced enzyme” value is listed as “UV-visible spectrum of reduced GluER-T36A (FMNhq)”.
